# Measured values taken from patent US5830434A, “Methods of treating non-insulin dependent diabetes mellitus with pancreatic polypeptide” (Medical University of South Carolina Foundation for …, priority 1997, dated 1998).
# Columns and labels:
# [1] = test system: G proteins migrating at 41 kDa in liver plasma membranes; experiment: Receptor dependent labeling of hepatocyte G proteins with AA-[32P]GTP; format: biochemical
# Description: Receptor dependent labeling of hepatocyte G proteins with 4-Azidoanilido-α[^32 P]GTP. The protocol for labeling G proteins with AA-GTP was as described previously (11). The AA-[32P]-GTP used in the labeling experiments was prepared according to the protocol of Offermans et al. (6,7).
# The purpose of these labeling studies was to determine whether PP stimulated the binding of AA-[^32 P]GTP to proteins migrating at the known molecular weight of G proteins in liver plasma membranes. […] Incubation of liver plasma membranes with 1 μM angiotensin II produced a two-fold increase in labeling of G protein(s) migrating at 41 kDa on SDS PAGE gels The 41 kDa band represents the pertussis-sensitive G protein family that is expressed in hepatocytes and which couples to angiotensin II receptors.
# Gs α = experiment: Western blot assay of Gs α in liver plasma membranes; format: in vivo, Zucker rat; settings: PP 200 μg/day/kg s.c. five days
# Description: (§1) Experimental Animal Protocol. Lean (+/?) and fatty (fa/fa) Zucker rats were obtained from Harlan Labs at seven weeks of age and randomly assigned to two groups within each phenotype. One group was injected subcutaneously with PP (Peninsula Labs (Belmont, Calif.) (200 μg/day/kg body weight) in a vehicle of physiological saline (0.9% w/v) while the other group was injected with only vehicle. The two groups within each phenotype received their respective treatments for five days, after which the animals were weighed and sacrificed following an overnight fast. Blood samples were obtained from each animal for assays of plasma glucose and insulin according to standard methods known in the art (3) and the pancreas was removed and subjected to an acid-ethanol extraction (0.1N HCl, 70% ethanol) as described previously for assay of pancreatic insulin (3). […]
# Purified liver plasma membranes were solubilized on ice for one hour in 20 mM Tris, 1 mM EDTA, 1 mM DTT, 100 mM NaCl and 0.9% sodium cholate (pH 8.0). […] Following the procedure of Mumby (20), the PVDF membranes were probed with Gs α IgG and the bands were detected with ^125 I-labeled goat anti-rabbit IgG (1.0×10^6 cpm/ml). […]
# In performing the Western blot assays, protein was carefully measured in the liver plasma membrane supernatant to assure that equal amounts of soluble membrane protein would be loaded from the respective treatment groups.
# adenylyl cyclase = experiment: Adenylyl cyclase assay in liver plasma membranes; format: biochemical, Zucker rat; settings: for effect of PP treatment on efficacy of glucagon in activating adenylyl cyclase: PP 200 μg/day/kg s.c. five days
# Description: Lean (+/?) and fatty (fa/fa) Zucker rats were obtained from Harlan Labs at seven weeks of age and randomly assigned to two groups within each phenotype. One group was injected subcutaneously with PP (Peninsula Labs (Belmont, Calif.) (200 μg/day/kg body weight) in a vehicle of physiological saline (0.9% w/v) while the other group was injected with only vehicle. The two groups within each phenotype received their respective treatments for five days, after which the animals were weighed and sacrificed following an overnight fast. Blood samples were obtained from each animal for assays of plasma glucose and insulin according to standard methods known in the art (3) and the pancreas was removed and subjected to an acid-ethanol extraction (0.1N HCl, 70% ethanol) as described previously for assay of pancreatic insulin (3). Livers were removed into ice cold balanced salt solution. After cooling, each liver was cleaned of connective tissue and minced into 2-4 mm pieces with scissors in 5 ml of ice-cold homogenizing buffer (50 mM Hepes, pH 6.5, 5 mM EDTA, 3 mM orthophenanthroline, 0.2 μM iodoacetic acid, 1 mM PMSF, 25 μm leupeptin (3). The minced liver was homogenized in a 40 ml Dounce homogenizer in 25 ml of homogenizing buffer with 25 strokes of the loose pestle and three strokes of the tight pestle. The homogenate was centrifuged for five minutes at 3000×g. The supernatant was removed and centrifuged for 20 min at 16,000×g. The resulting pellet was retained, resuspended in phosphate buffered saline (PBS) containing 5 mM MgCl2 and homogenized with five strokes of the Dounce homogenizer. After centrifuging for 20 min at 16,000×g, the membrane pellet was resuspended in homogenizing buffer containing 0.1% bovine serum albumin (BSA). Aliquots were frozen in liquid nitrogen and stored at -80° C.
# Adenylyl cyclase activity leading to the production of cAMP was determined in liver plasma membranes by methods previously described (2, 4). […] Cyclic AMP formed in the reaction was measured in the supernatant by radioimmunoassay according to methods described previously (2, 4). […]
# glucagon receptor [2] = target: T1, glucagon receptor (Rattus norvegicus, UniProt P30082); experiment: Glucagon saturation binding in liver plasma membranes; design: species or system Zucker rat
# T1 construct: from tissue; host or cells: liver plasma membranes of lean and fatty (fa/fa) Zucker rats
# T1 sequence (P30082 27-485): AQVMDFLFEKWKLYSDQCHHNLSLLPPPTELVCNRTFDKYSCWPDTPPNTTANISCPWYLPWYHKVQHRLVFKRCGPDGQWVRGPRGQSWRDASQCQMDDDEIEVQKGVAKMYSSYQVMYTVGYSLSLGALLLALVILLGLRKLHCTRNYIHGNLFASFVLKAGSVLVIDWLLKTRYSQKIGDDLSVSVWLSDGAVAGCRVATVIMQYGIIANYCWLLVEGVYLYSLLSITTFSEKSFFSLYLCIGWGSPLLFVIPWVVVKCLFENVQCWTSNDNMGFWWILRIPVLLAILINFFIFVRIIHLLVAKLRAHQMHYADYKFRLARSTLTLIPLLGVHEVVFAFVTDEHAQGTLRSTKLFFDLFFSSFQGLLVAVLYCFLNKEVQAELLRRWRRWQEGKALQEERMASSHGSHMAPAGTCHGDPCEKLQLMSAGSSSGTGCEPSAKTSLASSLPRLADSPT
# Description: as §1, with “(3). Livers were removed into ice cold balanced salt solution.” for “(3).”
# Binding curves were analyzed using nonlinear least squares.
# glucagon receptor [3] = target: T1, glucagon receptor; experiment: Glucagon competition binding in liver plasma membranes (50 pM labeled glucagon, with and without GTP); design: species or system Zucker rat
# Description: Experimental Animal Protocol. Lean (+/?) and fatty (fa/fa) Zucker rats were obtained from Harlan Labs at seven weeks of age and randomly assigned to two groups within each phenotype. One group was injected subcutaneously with PP (Peninsula Labs (Belmont, Calif.) (200 μg/day/kg body weight) in a vehicle of physiological saline (0.9% w/v) while the other group was injected with only vehicle. The two groups within each phenotype received their respective treatments for five days, after which the animals were weighed and sacrificed following an overnight fast. Blood samples were obtained from each animal for assays of plasma glucose and insulin according to standard methods known in the art (3) and the pancreas was removed and subjected to an acid-ethanol extraction (0.1N HCl, 70% ethanol) as described previously for assay of pancreatic insulin (3). Livers were removed into ice cold balanced salt solution. […]
Compound,increase in AA-[32P]GTP labeling of G protein(s) migrating at 41 kDa ([1]; 1 μM),effect of PP treatment on hepatic Gs α expression (Gs α; fatty Zucker rats),effect of PP treatment on hepatic Gs α expression (Gs α; lean Zucker rats),"labeling of G proteins migrating at 41 kDa, result in words [1]",maximal increase in AA-[32P]GTP labeling of G proteins migrating at 41 kDa ([1]; maximal effect),effect of PP treatment on efficacy of glucagon in activating adenylyl cyclase (adenylyl cyclase; fatty Zucker rats),effect of PP treatment on efficacy of glucagon in activating adenylyl cyclase (adenylyl cyclase; lean Zucker rats),"maximal adenylyl cyclase activation by glucagon (adenylyl cyclase; second replicate, PP treated fatty Zucker rats (200 μg/day/kg s.c., five days)) [pmol cAMP/min/mg]","effect of PP treatment on total glucagon binding sites (glucagon receptor [2]; either phenotype (lean and fatty Zucker rats), PP 200 μg/day/kg s.c. five days)","Bmax, total glucagon binding sites (glucagon receptor [2]; liver membranes of fatty Zucker rats treated with PP 200 μg/day/kg s.c. for five days) [fmol/mg]",percentage of high affinity glucagon binding sites (glucagon receptor [3]; fatty Zucker rats treated with PP for five days) [%],percentage of high affinity glucagon binding sites (glucagon receptor [3]; lean Zucker rats treated with PP for five days) [%]
"angiotensin II (DRVYIHPF; Angiotensin-2; UniProt P01019 25-32, looked up) [positive control that couples to pertussis-sensitive G proteins, reference compound]",two-fold,,,,,,,,,,,
CC[C@H](C)[C@H](NC(=O)[C@H](Cc1ccc(O)cc1)NC(=O)[C@H](CCCNC(=N)N)NC(=O)[C@H](CCCNC(=N)N)NC(=O)[C@H](CC(C)C)NC(=O)[C@H](CC(=O)O)NC(=O)[C@H](C)NC(=O)[C@H](C)NC(=O)[C@H](Cc1ccc(O)cc1)NC(=O)[C@H](CCC(N)=O)NC(=O)[C@H](C)NC(=O)[C@H](CCSC)NC(=O)[C@H](CCC(N)=O)NC(=O)[C@H](CCC(=O)O)NC(=O)[C@@H]1CCCN1C(=O)[C@@H](NC(=O)[C@H](C)NC(=O)[C@H](CC(N)=O)NC(=O)[C@H](CC(=O)O)NC(=O)CNC(=O)[C@@H]1CCCN1C(=O)[C@H](Cc1ccc(O)cc1)NC(=O)[C@@H](NC(=O)[C@@H]1CCCN1C(=O)[C@H](CCC(=O)O)NC(=O)[C@H](CC(C)C)NC(=O)[C@@H]1CCCN1C(=O)[C@H](C)N)C(C)C)[C@@H](C)O)C(=O)N[C@@H](CC(N)=O)C(=O)N[C@@H](CCSC)C(=O)N[C@@H](CC(C)C)C(=O)N[C@H](C(=O)N[C@@H](CCCNC(=N)N)C(=O)N1CCC[C@H]1C(=O)N[C@@H](CCCNC(=N)N)C(=O)N[C@@H](Cc1ccc(O)cc1)C(N)=O)[C@@H](C)O [PP],,decreased hepatic expression of Gs α to levels similar to that seen in lean rats,not altered,concentration-dependent increase in labeling,approximately two-fold,significant decrease in the efficacy of glucagon,did not modify the efficacy of glucagon,60.2±1.5,failed to alter total glucagon binding sites,569 ± 45,71,55
